The results in this text go back to patent US4142046A, “Intermediates for the preparation of 7-acyl-3-(substituted triazolylthiomethyl)cephalosporins” (SmithKline Corporation, priority 1976, dated 1979).

Values after ≈ are worked out from the molar mass of the structure shown. Bounds are passed on as bounds.

One test has as its system E. coli HH 33779. Description: MIC in vitro. The test is classed as cell-based. The following applies: Escherichia coli, HH33779. As for the experimental part:
(§1) The compounds of Formula I have antibacterial activity against both Gram-positive and Gram-negative organisms. Minimum inhibitory concentrations (MIC's) ranged from 0.2 to >200 μg./ml. in in vitro testing. […] Compound numbers corresponding to structures are given in the experimental section.

The test system of another test is E. coli SK 12140. Description: MIC in vitro. The following applies: Escherichia coli, SK12140; E. coli SK 12140; read-out: MIC in vitro. Format: cell-based. The method, then:
as §1

Test [1] relates to Entero. aerog. ATCC 13048. Description: MIC in vitro. Format: cell-based. As for the experimental part:
as §1

The next test concerns Entero. cloacae HH 31254. Description: MIC in vitro. Format: cell-based. The following applies: Enterobacter cloacae, HH31254, Entero. cloacae HH 31254; read-out: MIC in vitro. As for the experimental part: as §1
Another test relates to Kleb. pneumo. SK 1200. Kind of test: MIC in vitro. The test is classed as cell-based. The conditions noted are these: read-out: MIC in vitro, Kleb. pneumo. SK 1200. As for the experimental part:
as §1

In the next test the test system is Kleb. pneumo. SK 4200. Description: MIC in vitro. Format: cell-based. The conditions noted are these: Kleb. pneumo. SK 4200; read-out: MIC in vitro. The method, then:
as §1

Another test has as its system Proteus Morgani 179. Description: MIC in vitro. The test is classed as cell-based. The method, then: as §1
A further test relates to Pseudo. sp. HH 63. Kind of test: MIC in vitro. The test is classed as cell-based. The method, then:
as §1

The next test deals with S. aureus HH 127. Description: MIC in vitro. The conditions noted are these: Staphylococcus aureus, HH127, read-out: MIC in vitro. Format: cell-based. As for the experimental part: as §1
The subject of the next test is S. aureus SK 23390. Description: MIC in vitro. The test is classed as cell-based. The conditions noted are these: Staphylococcus aureus, SK23390, read-out: MIC in vitro. The method, then:
as §1

The next test has as its system S. villaluz. Description: MIC in vitro. The following applies: read-out: MIC in vitro. Format: cell-based. As for the experimental part: as §1
A further test has as its system Salmonella ATCC 12176. Kind of test: MIC in vitro. Format: cell-based. The following applies: ATCC12176. The method, then: as §1
A further test relates to Serra. marc. ATCC 13880. Description: MIC in vitro. Format: cell-based. The method, then: as §1
For another test, the system named is Shigella HH 117. Kind of test: MIC in vitro. The test is classed as cell-based. The following applies: Shigella, HH117, Shigella HH 117. The method, then:
as §1

The next test relates to Strep. faecalis HH 34358. Kind of test: MIC in vitro. The conditions noted are these: Enterococcus faecalis, HH34358, Strep. faecalis HH 34358. The test is classed as cell-based. As for the experimental part:
as §1

A further test has as its system E. coli 12140. Description: In vivo mouse protection (ED50).
A further test concerns Kleb. pneumo. 4200. Description: In vivo mouse protection (ED50). The following applies: Mus musculus.

Consider `N[C@@H](C(=O)NC1C(=O)N2C(C(=O)O)=C(CSc3n[nH]c(CC(=O)O)n3)CS[C@H]12)c1ccc(O)cc1` (stereo partly drawn) [VII, 7-(D-α-Amino-4-hydroxyphenylacetamido)-3-(5-carboxymethyl-1,2,4-triazol-3-ylthiomethyl)-3-cephem-4-carboxylic acid], for which the MIC was determined as 12.5 µg/mL (≈ 24 µM) against E. coli HH 33779; 3.1 µg/mL (≈ 5.96 µM) in the test on E. coli SK 12140; 25 µg/mL (≈ 48 µM) in test [1]; 3.1 µg/mL (≈ 5.96 µM) in the test on Entero. cloacae HH 31254; 6.3 µg/mL (≈ 12.1 µM) in the test on Kleb. pneumo. SK 1200; 1.6 µg/mL (≈ 3.07 µM) with Kleb. pneumo. SK 4200. The MIC was > 200 µg/mL in the test with Proteus Morgani 179; > 200 µg/mL in the test with Pseudo. sp. HH 63; 12.5 µg/mL (≈ 24 µM) in the test on S. aureus HH 127; 12.5 µg/mL (≈ 24 µM) in the test on S. aureus SK 23390; > 200 µg/mL in the test on S. villaluz; 1.6 µg/mL (≈ 3.07 µM) against Salmonella ATCC 12176. Also, the MIC in the test with Serra. marc. ATCC 13880 is > 200 µg/mL; in the test on Shigella HH 117, 6.3 µg/mL (≈ 12.1 µM); against Strep. faecalis HH 34358, 100 µg/mL (≈ 192 µM). In addition, the ED50 in the test with E. coli 12140 (Escherichia coli, 12140, po, E. coli 12140, p.o.) is > 50 mg/kg; in the test on E. coli 12140 (Escherichia coli, 12140, sc, E. coli 12140, s.c.) it was 3 mg/kg; in the test on Kleb. pneumo. 4200 (po, Kleb. pneumo. 4200, p.o.) it was 31 mg/kg; with Kleb. pneumo. 4200 (sc, Kleb. pneumo. 4200, s.c.) it was 1.1 mg/kg.
